Measured values taken from patent US20140121101A1, “TERNARY FUNGICIDAL COMPOSITIONS COMPRISING A DITHIINO-TETRACARBOXAMIDE FUNGICIDE” (BAYER INTELLECTUAL PROPERTY GMBH, priority 2011, published 2014).

System: Alternaria solani
Assay: Alternaria test (tomatoes)/preventive
Assay type: in vivo
Settings: tomato plants, preventive spray, evaluated 3 days after inoculation
Procedure: Alternaria Test (Tomatoes)/Preventive [table] To produce a suitable preparation of active compound, 1 part by weight of active compound is mixed with the stated amounts of solvent and emulsifier, and the concentrate is diluted with water to the desired concentration. To test for preventive activity, young plants are sprayed with the preparation of active compound at the stated rate of application. After the spray coating has dried on, the plants are inoculated with an aqueous spore suspension of Alternaria solani. The plants are then placed in an incubation cabinet at approximately 20° C. and a relative atmospheric humidity of 100%. The test is evaluated 3 days after the inoculation. 0% means an efficacy which corresponds to that of the untreated control while an efficacy of 100% means that no disease is observed.

Row | Compound | Efficacy in % found (activity found) (5 ppm a.i.) [%] | Efficacy in % found (activity found) (0.5 ppm a.i.) [%]
1 | Cn1c(=O)c2sc3c(=O)n(C)c(=O)c3sc2c1=O [(1.1), 2,6-dimethyl-1H,5H-[1,4]dithiino[2,3-c:5,6-c′]dipyrrole-1,3,5,7(2H,6H)-tetrone] | 0 | –
2 | OC(Cc1ccccc1Cl)(Cn1nc[nH]c1=S)C1(Cl)CC1 (stereo not drawn) [(2.41), prothioconazole] | – | 4
3 | CON=C(C(=O)OC)c1ccccc1CON=C(C)c1cccc(C(F)(F)F)c1 [(3.22), trifloxystrobin] | – | 29
